From PMC6270271, “Accidental Interaction between PDZ Domains and Diclofenac Revealed by NMR-Assisted Virtual Screening” (Molecules, 2013)

How the values were obtained:
[1] = target: T1, RHPN2 (RHPN2_PDZ, PDZ7) (Homo sapiens, UniProt Q8IUC4); assay: 1H-15N SOFAST-HMQC NMR titration; type: binding
T1 construct: PDZ domain, 99 residues
T1 sequence (Q8IUC4 515-593 limits assumed): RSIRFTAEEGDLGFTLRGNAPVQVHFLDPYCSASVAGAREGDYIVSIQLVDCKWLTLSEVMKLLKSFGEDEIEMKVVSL
Description: 1H-15N SOFAST-HMQC NMR titration on RHPN2 (RHPN2_PDZ, PDZ7) | PDZ7|−|++|++|−|−|−|−|+|−|−

[2] = target: T2, InaDL (InaDL_PDZ6, PDZ13) (Homo sapiens, UniProt Q8NI35); assay: 1H-15N SOFAST-HMQC NMR titration; type: binding
T2 construct: gene PATJ; PDZ6 domain, 113 residues
T2 sequence (Q8NI35 1058-1170 limits assumed): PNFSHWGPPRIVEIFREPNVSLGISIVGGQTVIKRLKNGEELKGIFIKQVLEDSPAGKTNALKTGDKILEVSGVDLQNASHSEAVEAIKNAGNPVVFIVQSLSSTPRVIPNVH

[3] = target: T3, mouse ZO-1 (mZO1-PDZ1) (Mus musculus, UniProt P39447); assay: 1H-15N SOFAST-HMQC NMR titration; V92E-R96Q mutant abolishes binding
T3 construct: gene Tjp1
T3 sequence (P39447 18-110): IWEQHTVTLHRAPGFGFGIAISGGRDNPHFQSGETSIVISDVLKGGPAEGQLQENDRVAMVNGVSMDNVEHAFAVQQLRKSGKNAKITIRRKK

[4] = target: T4, Harmonin (Harmonin_PDZ2, PDZ8) (Homo sapiens, UniProt Q9Y6N9); assay: 1H-15N SOFAST-HMQC NMR titration; type: binding
T4 construct: gene USH1C; PDZ2 domain, 100 residues
T4 sequence (Q9Y6N9 201-300 limits assumed): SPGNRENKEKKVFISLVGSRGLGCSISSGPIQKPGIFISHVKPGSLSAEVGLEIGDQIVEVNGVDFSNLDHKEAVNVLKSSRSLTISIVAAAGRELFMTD
Description: 1H-15N SOFAST-HMQC NMR titration on Harmonin (Harmonin_PDZ2, PDZ8) | PDZ8|−|+|−|−|−|−|−|++|−|−

[5] = target: T3, mouse ZO-1 (mZO1-PDZ1); assay: 1H-15N SOFAST-HMQC NMR titration; type: binding

SMILES	1H-15N SOFAST-HMQC NMR titration [1]	1H-15N SOFAST-HMQC NMR titration [2]	Kd [3]	1H-15N SOFAST-HMQC NMR titration [4]	Kd [5]
CC(=O)O[C@H]1C[C@@]2(C)[C@@H](C[C@@H](O)[C@H]3[C@@]4(C)CC[C@@H](O)[C@@H](C)[C@@H]4CC[C@@]32C)/C1=C(\CCC=C(C)C)C(=O)O [FUA, fusidic acid]	PDZ7|−|++|++|−|−|−|−|+|−|−	–	–	–	–
O=C(O)Cc1ccccc1Nc1c(Cl)cccc1Cl [DIF, 2-[(2,6-dichlorophenyl)amino] benzene-acetic acid]	PDZ7|−|++|++|−|−|−|−|+|−|−	PDZ13|n. e.|++|+|−|−|−|−|++|−|−	1400 µM	PDZ8|−|+|−|−|−|−|−|++|−|−	–
O=C(O)c1ccccc1Nc1cccc(C(F)(F)F)c1 [FLF, 2-[[3-(trifluoro-methyl)phenyl]amino] benzoic acid]	PDZ7|−|++|++|−|−|−|−|+|−|−	PDZ13|n. e.|++|+|−|−|−|−|++|−|−	–	PDZ8|−|+|−|−|−|−|−|++|−|−	750 µM
